Values of other authors, collected in patent US20240066044A1, “METHODS AND COMPOSITIONS FOR INCREASING NAD+ METABOLOME IN HEALTHY MIDDLE-AGED POPULATION” (Bioenergy Life Science, Inc., priority 2021, published 2024).
Read-outs that look alike come from different tables or passages of the source.

NC(=O)c1cccnc1 [NAM, nicotinamide]
daily tolerable upper dietary intake (Canada): 500 mg
daily tolerable upper dietary intake (EU): 900 mg
daily tolerable upper dietary intake (Japan): 5 mg/kg
doses at which NAM is ineffective for boosting NAD+ (NAD+): below 90 mg per day
